Experimental data reported in patent publication US12258336B2, “Preparation of seimicarbazide-sensitive amine oxidase inhibitor and use thereof” (SHANGHAI ENNOVABIO PHARMACEUTICALS CO., LTD., priority 2018, dated 2025).

What was measured:
[1] = molecular target: T1, mouse SSAO protein (Mus musculus, UniProt O70423); assay: In vitro inhibitory activity on SSAO/VAP-1 (MAO-Glo assay), mouse; assay type: biochemical
T1 construct: Eli Lilly (provided, not a catalogue product)
T1 sequence (O70423 1-765): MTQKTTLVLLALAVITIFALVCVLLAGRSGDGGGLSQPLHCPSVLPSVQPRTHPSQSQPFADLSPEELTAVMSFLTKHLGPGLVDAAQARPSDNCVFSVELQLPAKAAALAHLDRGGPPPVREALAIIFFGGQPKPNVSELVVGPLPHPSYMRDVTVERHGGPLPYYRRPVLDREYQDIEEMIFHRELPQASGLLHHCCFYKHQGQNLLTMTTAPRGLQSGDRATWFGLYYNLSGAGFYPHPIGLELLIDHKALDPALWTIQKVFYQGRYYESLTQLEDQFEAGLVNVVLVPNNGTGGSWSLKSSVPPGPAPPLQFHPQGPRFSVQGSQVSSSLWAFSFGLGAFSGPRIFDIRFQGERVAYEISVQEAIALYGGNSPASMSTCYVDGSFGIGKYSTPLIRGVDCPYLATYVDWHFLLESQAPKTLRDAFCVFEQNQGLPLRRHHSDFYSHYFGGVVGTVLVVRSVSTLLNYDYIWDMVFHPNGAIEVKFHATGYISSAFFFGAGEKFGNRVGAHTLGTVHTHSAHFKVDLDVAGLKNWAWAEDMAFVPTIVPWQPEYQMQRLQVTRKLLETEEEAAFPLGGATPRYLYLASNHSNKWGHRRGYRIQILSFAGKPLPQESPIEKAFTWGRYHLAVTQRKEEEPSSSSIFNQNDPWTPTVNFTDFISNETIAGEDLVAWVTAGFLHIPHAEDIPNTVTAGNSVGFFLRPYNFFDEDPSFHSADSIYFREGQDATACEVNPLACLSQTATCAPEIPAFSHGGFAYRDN
Description: This assay was used to evaluate the in vitro inhibitory activity of the compounds on SSAO/VAP-1 of different species. Recombinant human SSAO protein, mouse SSAO protein or rat SSAO protein (provided by Eli Lilly) were used. The enzyme activity detection kit, MAO-Glo Assay kit (V1402) was purchased from Promega. Enzyme reaction buffer (50 mM HEPES, 120 mM NaCl, 5 mM KCl, 2 mM CaCl2, 1.4 mM MgCl2, 0.001% Tween-20, pH7.4) was prepared. The test compound was dissolved in DMSO and diluted by 3-fold concentration in gradient. The final concentration of test compound in a 10 μL reaction system was 1 μM to 0.05 nM when SSAO was detected. The content of DMSO in the detection reaction was 1%. After the solution of test compound in DMSO was diluted in the enzyme reaction buffer at a volume ratio of 1:25, 2.5 μL of which was added to each well of detection plate, two replicates for each concentration. 5 μL of SSAO protein diluted in the enzyme reaction buffer was added to each well, the final concentration of which was 10 nM to 80 nM in 10 μL reaction system. The mixture was incubated at room temperature for 10 minutes. 2.5 μL of the reaction substrate diluted in the enzyme reaction buffer was added to each well, the final concentration of which was 10 μM in 10 μL reaction system. After the mixture was reacted at room temperature for 120 minutes, 10 μL of detection reagent was added to each well. The reaction solution was incubated for 20 minutes at room temperature, and the plate was read with Synergy Neo 2 for detection. The value was converted into inhibition rate by the following formula: Inhibition rate=(Signalpositive−Signaltest)/(Signalpositive−Signalnegative)×100%
Signalpositive was positive control without test compound. Signalnegative was negative control without test compound and SSAO enzyme, and Signaltest was detection value of each compound at different concentrations. IC50 value was calculated by using 4 parameter curve fitting.

[2] = system: LPS-induced inflammatory disease model in rats; assay: LPS-induced ocular inflammation model: protein concentration and cell number in aqueous humor; assay type: in vivo; conditions: rat, LPS footpad injection, 6 mg/kg oral 1 h before induction, 24 hours after induction, mean±SEM
Description: (§1) 22 rats (7-8 weeks, 220-250 g) were divided into 3 groups, which were control group (6), model group (8) and compound treated group (8). For the model group and compound treated group, ocular inflammation was induced by a single injection of 8 μg/100 μL lipopolysaccharide (Sigma-Aldrich-L2880) into the footpad. The rats were grouped according to their body weight 1 h before induction. Example 4 compound (6 mg/kg, 10 mL/kg) or vehicle (10 mL/kg) were orally administered respectively. 24 hours after induction, the anterior aqueous humor was collected and the eyeballs were removed to dissect the retina. Ocular inflammation was quantitatively evaluated by measuring the protein concentration and cell number in the aqueous humor. qPCR method was used to verify changes in the expression of ocular retinal inflammation-related genes.
10 μL of aqueous humor was diluted in 40 μL of PBS and mixed, then 25 μL of mixture was mixed with 75 μL of PBS, and centrifuged at 300 g for 5 min at 4° C. 55 μL of supernatant was aspirated carefully and the protein concentration was determined according to the method described in the BCA Protein Assay Kit (Pierce-23227); after the remaining sample was resuspended, 40 μL of cell suspension was added into 100 μL of 1% FBS/PBS to analyze and count live cells using NovoCyte 3130 flow cytometry after excluding cell debris.

[3] = system: ALOX5AP, SOCS3 and TLR7 gene expression in retina; assay: LPS-induced ocular inflammation model: qPCR of inflammation-related genes in retina; assay type: in vivo; conditions: rat, 6 mg/kg oral, compared with model group
Description: as §1
• 1) Primers were synthesized, with the information shown as follows:
• 2) Retinal RNA was extracted according to operating instructions of RNA extraction kit (RNeasy Mini Kit, Qiagen-74104), and then the RNA was reverse-transcribed into cDNA (High Capacity cDNA Reverse Transcription Kits, ABI-4374966). The obtained cDNA was diluted 10 times to serve as qPCR reaction template. According to instructions of Power SYBR Green kit (ABI-A25918), qPCR reaction was performed on CFX384 Real-Time qPCR equipment. Quantitative analysis of expression changes for each gene expression was performed using CFX Maestro software by ΔΔCt method, with UBC as internal housekeeping gene.

SMILES: COC1CC2CC1CN2c1ncc(OC/C(=C/F)CN)cn1 (centres unmarked) [Example 2]
- IC50 [1]: < 100 nM

SMILES: NC/C(=C\F)COc1cnc(N2CCN(C3COC3)CC2)nc1 [Example 4, (E)-3-fluoro-2-(((2-(4-(oxbutan-3-yl)piperazin-1-yl)pyrimidin-5-yl)oxo)methyl)prop-2-en-1-amine]
- IC50 [1]: < 100 nM
- cell number in aqueous humor ([2]; model group 48.28±21.46): 5.07±0.80 *10^4 cell/mL
- protein concentration in aqueous humor ([2]; model group 9730.04±1232.30): 7275.44 ± 622.66 µg/mL
- expression level of ALOX5AP gene in retina [3]: significantly reduce
- expression level of SOCS3 gene in retina [3]: significantly reduce
- expression level of TLR7 gene in retina [3]: significantly reduce

SMILES: COC1CC2CCC(C1)N2c1ncc(OC/C(=C/F)CN)cn1 (centres unmarked) [Example 12]
- IC50 [1]: < 100 nM
